Measured values from patent US20190298664A1, “METHOD AND KIT FOR MYOCARDIAL REPERFUSION, AND METHOD FOR ATTENUATING OR REDUCING MYOCARDIAL REPERFUSION INJURY” (Academia Sinica, priority 2018, published 2019).

Key:
[1] = tested on: phosphorylation of Paxillin and p130Cas in H9C2 cells; experiment: Immunoblotting of H9c2 total lysates for pTyr of Paxillin and p130Cas; assay type: cell-based; conditions: H9C2 cells treated with indicated concentrations
Description: (§1) Hearts from mice received different treatment were gently homogenized in ice-cold RIPA buffer [250 mM Tris-HCl pH 7.4, 750 mM NaCl, detergent mix (5% NP-40, 2.5% Na-deoxycholate and 0.5% SDS), and 1× protease inhibitor cocktail (EDTA free)] containing phosphatase inhibitors (2 mM Na3VO4, 10 mM NaF, and 10 mM Na2P2O7). The homogenates were centrifuged at 16,100×g at 4° C. for 10 minutes to remove the debris. Protein concentrations were determined by Bradford protein assay. Equal amounts of protein extract from those mice were separated by SDS-PAGE on an 8% or 10% polyacrylamide gel and then transferred to PVDF membrane. Membranes were incubated with indicated primary antibody at 4° C. overnight followed by incubated with secondary antibodies for 1 hour at room temperature. The protein abundance was detected by the signal intensity of each specific band. H9C2 cell lines were purchased from ATCC® organization, U.S. Cell cultures were maintained in Dulbecco modified Eagle medium (DMEM) supplemented with 10% fetal bovine serum (FBS) and 1% Penicillin/Streptomycin at 37° C. incubator in a 5% CO2 humid atmosphere.

[2] = tested on: overall PTP activity in H9C2 cells; experiment: Overall PTP activity (orthovanadate-sensitive fraction) by pNPP assay in H9C2 cells; assay type: cell-based; conditions: 5, 10 and 20 μmol/L for 20 min
Description: For heart tissue: At the end of the treatment, the left ventricle of mouse heart is gently homogenized in ice-cold RIPA buffer with Ser/Thr phosphatase inhibitors inside. Then the samples are centrifuged at 16,100×g for 10 min at 4° C. to remove the debris. Tissue extract (1 mg) is incubated with pNPP (2 mM) in reaction buffer at 37° C. for 60 min on a shaker. At the end of incubation, the reaction is terminated by addition of the same volume of 0.1 N NaOH. The released p-nitrophenolate ion is measured by spectrophotometry reading the absorbance at 405 nm. For H9C2 cell: At the end of the treatment, the cells are collected in ice-cold RIPA buffer with Ser/Thr phosphatase inhibitors inside. Then the samples are centrifuged at 16,100×g for 10 min at 4° C. to remove the debris. The cell lysate is incubated with pNPP […] in reaction buffer at 37° C. for 90 min on a shaker. The reaction is terminated by adding the same volume of 0.1 N NaOH. The released p-nitrophenolate ion is measured by spectrophotometry reading the absorbance at 405 nm. H9C2 cell lines were purchased from ATCC® organization, U.S. Cell cultures were maintained in Dulbecco modified Eagle medium (DMEM) supplemented with 10% fetal bovine serum (FBS) and 1% Penicillin/Streptomycin at 37° C. incubator in a 5% CO2 humid atmosphere.

[3] = tested on: myocardial protein tyrosine phosphorylation; experiment: Immunoblotting of heart extracts of I/R mice (anti-pTyr, p-Paxillin, p-p130cas, p-ErbB-2); assay type: in vivo, mouse; conditions: 2 mg/kg IP ten min before reperfusion; four hours post-I/R
Description: (§2) We anesthetized the mouse with 5% isoflurane mixed with room air until loss of sensation of pain and then maintained the mouse in anesthesia status with 2% isoflurane mixed with room air through the whole procedure. The mouse's body temperature was maintained at 37° C. by a heating pad. After the mouse was intubated, we provided artificial ventilation to the mouse with a small animal ventilator. Then the chest cavity was opened at the second intercostal space and homemade chest retractors were utilized to widen the incision. We pulled the pericardium apart carefully and exposed the left anterior descending artery (LAD). A 7-0 silk was put underneath the LAD at the position of the tip of the left auricle, a 6 mm length of PE-10 tube was put on the surface of the LAD, and then a double knot was made to occlude the blood flow of LAD. The success of ligation was confirmed by paling the anterior wall of the LV. For the reperfusion group, the LAD knot would be untied for the purpose of reperfusion after 1 hour of ischemia. For the sham operation group, all procedures were the same except for the knot that occluded the LAD flow. After the successful procedure, we left the silk in situ, closed the chest cavity and weaned the animal from the ventilator.
as §1, with “band.” for “band. H9C2 cell lines were purchased from ATCC® organization, U.S. Cell cultures were maintained in Dulbecco modified Eagle medium (DMEM) supplemented with 10% fetal bovine serum (FBS) and 1% Penicillin/Streptomycin at 37° C. incubator in a 5% CO2 humid atmosphere.”

myocardial PTP activity = experiment: Overall myocardial PTP activity by pNPP assay in heart extracts of I/R mice; assay type: in vivo, mouse; conditions: 2 mg/kg IP ten min before reperfusion; four hours post-I/R
Description: as §2, with “by […]” for “by paling the”, “flow. […] The released p-nitrophenolate ion is measured by spectrophotometry reading” for “flow. After”, “the absorbance at 405 nm. […]” for “the successful procedure, we left”, “[…]” for “the silk in situ, closed the chest cavity and weaned the animal from the ventilator.”

Structure (SMILES): CC(=O)OC[C@H]1O[C@@H]([S-])[C@H](OC(C)=O)[C@@H](OC(C)=O)[C@@H]1OC(C)=O.CCP(CC)CC.[Au+] [Auranofin, auranofin]
- Phosphorylation on the specific Tyr residue in Paxillin or p130Cas [1]: increase
- Overall PTP activity in H9C2 cells [2]: decreased
- Decreased protein tyrosine phosphorylation in the I/R heart (anti-pTyr) [3]: reversed
- I/R-induced decrease of pTyr signaling in Paxillin and p130Cas [3]: restored
- I/R-suppressed phosphorylation of Tyr1248 in ErbB-2 [3]: restored
- Overall myocardial PTP activity (myocardial PTP activity): significantly suppressed
